# US20250099448A1, “HETEROCYCLIC COMPOUNDS” (Hoffmann-La Roche Inc., priority 2022, published 2025)
# pIC50: −log10 of the molar value.
# Biological target: T1, MAGL protein (Homo sapiens, UniProt Q99685)
# T1 sequence (Q99685 1-303): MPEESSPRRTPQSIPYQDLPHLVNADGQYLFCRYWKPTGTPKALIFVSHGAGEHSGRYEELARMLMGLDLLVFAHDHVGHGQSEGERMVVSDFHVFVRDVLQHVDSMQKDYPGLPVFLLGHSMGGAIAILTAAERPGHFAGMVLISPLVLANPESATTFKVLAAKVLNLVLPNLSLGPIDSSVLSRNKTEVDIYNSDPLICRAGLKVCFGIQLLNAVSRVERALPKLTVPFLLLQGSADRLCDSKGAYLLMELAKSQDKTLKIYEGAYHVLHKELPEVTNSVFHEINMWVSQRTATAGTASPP
# Test: 2-AG assay: MAGL inhibitory activity by hydrolysis of 2-arachidonoylglycerol to arachidonic acid, followed by mass spectrometry
# Assay type: biochemical
# Conditions: 8 μM 2-arachidonoylglycerol, 15 min preincubation, 30 min reaction at RT, RapidFire MS readout
# Procedure, shortened: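 Activity was measured by RapidFire SPE–triple-quad MS as the ratio of arachidonic acid to d8-arachidonic acid after 2-AG hydrolysis (8 μM substrate, 30 min, RT, acetonitrile quench). Compounds, tested from 12.5 μM down to […], were first preincubated 15 min with MAGL in TRIS/EDTA/Tween-20 buffer containing 2.5% DMSO.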
row,Compound,pIC50
1,N#Cc1cc(C(F)(F)F)ncc1OC1CCC2(C1)CN(C(=O)N1CC3(CC(c4nnc(C5CC5)[nH]4)C3)C1)C2 (racemic) [compound 154],8.46
2,Cn1nc(CC2CC3(C2)CN(C(=O)N2CC4(CC(c5nc(C6(O)CC6)n[nH]5)C4)C2)C3)cc1C(F)(F)F [compound 491],9.47
3,O=C(N1CC(NCc2ccc(C(F)(F)F)cc2Cl)C1)N1CC2(CC(c3nnc(C4CC4)[nH]3)C2)C1 [compound 190],7.90
4,N#Cc1cc(C(F)(F)F)ncc1C[C@H]1CCC2(C1)CN(C(=O)N1CC3(CC(c4nnc(C5CC5)[nH]4)C3)C1)C2 [compound 611],9.17
5,N#Cc1cc(CC2CC3(C2)CN(C(=O)N2CC4(CC(c5nnc(C6CC6)[nH]5)C4)C2)C3)ccc1C(F)(F)F [compound 26],10.70
6,O=C(N1CC(C23CC(c4ccc(S(=O)(=O)C(F)(F)F)cc4)(C2)C3)C1)N1CC2(CC(c3nc(C4(O)CC4)n[nH]3)C2)C1 [compound 419],9.30
7,O=C(N1CC(c2cnc(N3CC(C(F)(F)F)C3)nc2)C1)N1CC2(CC(c3nnc(C4CC4)[nH]3)C2)C1 [compound 263],8.09
8,O=C(N1CC(c2cnc(NCC3(C(F)(F)F)CC3)cn2)C1)N1CC2(CC(c3nc(C4(F)CC4)n[nH]3)C2)C1 [compound 503],9.16
9,O=C(N1CC(NCc2cc(Cl)ccc2C(F)(F)F)C1)N1CC2(CC(c3nnc(C4CC4)[nH]3)C2)C1 [compound 199],7.50
10,O=C(N1CC2(CC(Cc3ccc(C(F)(F)F)cc3F)C2)C1)N1CC2(CC(c3nc(C4CC(F)(F)C4)n[nH]3)C2)C1 [compound 467],9.48
11,O=C(N1CC2(CC(c3nnc(C4CC4)[nH]3)C2)C1)N1CC2(C1)CN(c1cnc(C(F)(F)F)cn1)C2 [compound 218],6.76
12,O=C(N1CC2(CC(Nc3ccc(C(F)(F)F)nn3)C2)C1)N1CC2(CC(c3nnc(C4CC4)[nH]3)C2)C1 [compound 57],7.59
13,O=C(N1CC2(CC(c3nc(C4CC4)n[nH]3)C2)C1)N1CC2(CN(Cc3ccnn3C(F)(F)F)C2)C1 [compound 656],7.40
14,O=C(N1CC(OCC2(C(F)(F)F)CC2)C1)N1CC2(CC(c3nnc(C4CC4)[nH]3)C2)C1 [compound 331],6.96
15,Cc1cc(C(F)F)nn1CC1CC2(C1)CN(C(=O)N1CC3(CC(c4nc(C5CC5)n[nH]4)C3)C1)C2 [compound 818],9.23
16,O=C(N1CC2(CC(Cc3noc(C(F)(F)F)n3)C2)C1)N1CC2(CC(c3nc(C4CC4)n[nH]3)C2)C1 [compound 794],8.99
17,O=C(N1CC2(CCN(Cc3cc(C(F)(F)F)on3)CC2)C1)N1CC2(CC(c3nc(C4CC4)n[nH]3)C2)C1 [compound 544],8.06
18,O=C(N1CC2(CC(Oc3ccc(F)cn3)C2)C1)N1CC2(CC(c3nc(C4CC4)n[nH]3)C2)C1 [compound 434],8.26

row,Compound,pIC50
1,O=C(N1CC2(CC(Cc3ccc4nc(C(F)(F)F)nn4c3)C2)C1)N1CC2(CC(c3nc(C4CC4)n[nH]3)C2)C1 [compound 993],9.10
2,O=C(N1CC2(CC(COc3ccc(C(F)(F)F)cn3)C2)C1)N1CC2(CC(c3nc(C4CC4)n[nH]3)C2)C1 [compound 970],9.80
3,CS(=O)(=O)c1ccc(CC2CC3(C2)CN(C(=O)N2CC4(CC(c5nnc(C6CC6)[nH]5)C4)C2)C3)nc1 [compound 119],8.19
4,Cn1ncc(CC2CC3(C2)CN(C(=O)N2CC4(CC(c5nc(C6COC6)n[nH]5)C4)C2)C3)c1C(F)(F)F [compound 774],8.10
5,O=C(N1CC2(CC(Oc3ccc(C(F)(F)F)nc3)C2)C1)N1CC2(CC(c3nnc(C4(O)CC4)[nH]3)C2)C1 [compound 132],8.22
6,O=C(N1CC2(CC(Cc3nc(C(F)(F)F)no3)C2)C1)N1CC2(CC(c3nc(C4CC4)n[nH]3)C2)C1 [compound 683],9.68
7,CS(=O)(=O)c1cc(CC2CC3(C2)CN(C(=O)N2CC4(CC(c5nnc(C6(O)CC6)[nH]5)C4)C2)C3)ccc1C(F)(F)F [compound 42],9.06
8,O=C(N1CC2(CC(Cn3ccnc3C(F)(F)F)C2)C1)N1CC2(CC(c3nc(C4CC4)n[nH]3)C2)C1 [compound 453],8.76
9,O=C(N1CC2(CC(c3nc(C4(O)CC4)n[nH]3)C2)C1)N1CC2(CC[C@@H](Cc3cccc(S(=O)(=O)C(F)(F)F)c3)C2)C1 [compound 726],10.00
10,Cc1cc(C2CC2)n(-c2ccc(C3CN(C(=O)N4CC5(CC(c6nnc(C7CC7)[nH]6)C5)C4)C3)cc2)n1 [compound 287],9.89
11,O=C(N1CC2(CCC(OCC3(C(F)(F)F)CC3)CC2)C1)N1CC2(CC(c3nnc(C4CC4)[nH]3)C2)C1 [compound 65],8.84
12,O=C(N1CC(NS(=O)(=O)C2CCC(F)(F)CC2)C1)N1CC2(CC(c3nnc(C4CC4)[nH]3)C2)C1 [compound 204],5.87
13,CS(=N)(=O)c1ccc(CC2CC3(C2)CN(C(=O)N2CC4(CC(c5nnc(C6CC6)[nH]5)C4)C2)C3)cc1 (centres unmarked) [compound 123],8.40
14,O=C(N1CC(c2ccc(-c3cc(C(F)(F)F)n[nH]3)cc2)C1)N1CC2(CC(c3nnc(C4CC4)[nH]3)C2)C1 [compound 851],9.64
15,O=C(N1CC(c2ccc(N3CC(C(F)(F)F)C3)nc2)C1)N1CC2(CC(c3nnc(C4CCC4)[nH]3)C2)C1 [compound 260],7.71
16,O=C(N1CC2(CC(c3nc(C4CC4)n[nH]3)C2)C1)N1CC2(CN(Cc3nc(CC4CC4)no3)C2)C1 [compound 733],7.53
17,O=C(N1CC(C23CC(NCC4(C(F)(F)F)CC4)(C2)C3)C1)N1CC2(CC(c3nnc(C4CC4)[nH]3)C2)C1 [compound 342],9.31

# More lines, in order of rising pIC50, values ahead:
row,pIC50,Compound
1,5.30,O=C(N1CC2(CC(c3ncn[nH]3)C2)C1)N1CC2(CC(c3ccc(C(F)(F)F)cc3F)C2)C1 [compound 982]
2,7.02,"COc1cc(Cl)ccc1CN(C)C1CCN(C(=O)N2CC3(CC(c4nnc(C5CC5)[nH]4)C3)C2)CC1 [Example 893, [4-[(4-chloro-2-methoxy-benzyl)-methyl-amino]piperidino]-[6-(5-cyclopropyl-4H-1,2,4-triazol-3-yl)-2-azaspiro[3.3]heptan-2-yl]methanone]"
3,7.23,O=C(N1CC(c2ccc(N3CCS(=O)(=O)CC3)nc2)C1)N1CC2(CC(c3nnc(C4CC4)[nH]3)C2)C1 [compound 80]
4,7.47,COc1ccccc1S(=O)(=O)N1CC2(CN(C(=O)N3CC4(CC(c5nnc(C6CC6)[nH]5)C4)C3)C2)C1 [compound 108]
5,7.55,O=C(NCC1(C(F)(F)F)CC1)C1CC2(C1)CN(C(=O)N1CC3(CC(c4nnc(C5CC5)[nH]4)C3)C1)C2 [compound 359]
6,7.64,O=C(N1CC(OCC2CCC(F)(F)CC2)C1)N1CC2(CC(c3nnc(C4CC4)[nH]3)C2)C1 [compound 326]
7,7.69,O=C(N1CC2(CC(c3nnc(C4CC4)[nH]3)C2)C1)N1CC2(C1)CN(S(=O)(=O)c1ccc(F)c(F)c1)C2 [compound 106]
8,7.75,N=S(=O)(c1ccc(CC2CC3(C2)CN(C(=O)N2CC4(CC(c5nc(C6COC6)n[nH]5)C4)C2)C3)cc1)C(F)(F)F (centres unmarked) [compound 782]
9,7.83,O=C(N1CC(c2ccc(C3(C(F)(F)F)CC3)cc2)C1)N1CC2(CC(c3nnc(C(O)C(F)(F)F)[nH]3)C2)C1 (centres unmarked) [compound 228]
10,7.99,O=C(N1CC2(CC(Cc3ccc(C(F)(F)F)cn3)C2)C1)N1CC2(CC(c3nc(C4COC4)n[nH]3)C2)C1 [compound 824]
11,8.01,O=C(N1CC2(CC(c3nc(C4CC4)n[nH]3)C2)C1)N1CC2(CC(C(F)c3ccc(C(F)(F)F)nc3)C2)C1 (centres unmarked) [compound 845]
12,8.02,"CS(=O)(=O)c1cnn(-c2ccc(C3CN(C(=O)N4CC5(CC(c6nnc(C7CC7)[nH]6)C5)C4)C3)cc2)c1 [Example 500, [6-(5-cyclopropyl-4H-1,2,4-triazol-3-yl)-2-azaspiro[3.3]heptan-2-yl]-[3-[4-(4-mesylpyrazol-1-yl)phenyl]azetidin-1-yl]methanone]"
13,8.10,CC(C)(O)C1CN(c2ccc(C3CN(C(=O)N4CC5(CC(c6nnc(C7CC7)[nH]6)C5)C4)C3)cn2)C1 [compound 298]
14,8.22,O=C(N1CC2(CC(c3nnc(C4CC4)[nH]3)C2)C1)N1CC2(CN(Cc3cnn4ccccc34)C2)C1 [compound 887]
15,8.27,Cc1nc(C(F)F)nn1-c1ccc(C2CN(C(=O)N3CC4(CC(c5nnc(C6CC6)[nH]5)C4)C3)C2)cc1 [compound 534]
16,8.36,"O=C(N1CC(c2cnc(N3CC[C@@H](C(F)(F)F)C3)nc2)C1)N1CC2(CC(c3nc(C4CC4)n[nH]3)C2)C1 (single isomer, unassigned) [compound 265]"
17,8.50,O=C(N1CC2(CC(c3nnc(C4CC4)[nH]3)C2)C1)N1CC2(C1)CN(S(=O)(=O)c1ccc(F)cc1Cl)C2 [compound 107]
18,8.58,CC(C)(C)c1ccc(C2CN(C(=O)N3CC4(CC(c5nc(C6CC6)n[nH]5)C4)C3)C2)cn1 [compound 399]
19,8.89,"NC(=O)[C@@H]1CC(F)(F)CCN1c1ccc(C2CN(C(=O)N3CC4(CC(c5nnc(C6CC6)[nH]5)C4)C3)C2)cc1 [Example 395, (2S)-1-[4-[1-[6-(5-cyclopropyl-4H-1,2,4-triazol-3-yl)-2-azaspiro[3.3]heptane-2-carbonyl]azetidin-3-yl]phenyl]-4,4-difluoro-piperidine-2-carboxamide]"
20,9.22,O=C(N1CC2(CC(Cc3cnc4cc(C(F)(F)F)nn4c3)C2)C1)N1CC2(CC(c3nc(C4CC4)n[nH]3)C2)C1 [compound 996]
21,9.77,CC(C)c1cc(C(C)C)n(-c2ccc(C3CN(C(=O)N4CC5(CC(c6nnc(C7CC7)[nH]6)C5)C4)C3)cc2)n1 [compound 276]
